Source: PubChem BioAssay AID2060618 (Molecular Pharmacology Branch, DTP, NCI, 2025)

Test system: 454973-116-R2-J3-PDC spheroids, percent test/control viability
Test: Anticancer human tumor 454973-116-R2-J3-PDC patient-derived pancreatic carcinoma cell line growth inhibition [CLK]
Conditions: spheroids with HUVEC and MSC; for IC50: curve of first compound; for viability, T/C: stronger effect = lower value
Method in brief: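 Multi-cell-type spheroids combined patient-derived tumor cells with HUVEC endothelial cells and human mesenchymal stem cells. Paired agents were dosed in half-log steps down from about clinical Cmax, or from 10 microM where Cmax was unknown.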
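Also: spheroids exposed to compounds for 7 days before readout.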

## CC1(C)CCC(CN2CCN(c3ccc(C(=O)NS(=O)(=O)c4ccc(NCC5CCOCC5)c([N+](=O)[O-])c4)c(Oc4cnc5[nH]ccc5c4)c3)CC2)=C(c2ccc(Cl)cc2)C1 + CNC(=O)c1ccc(Nc2nc(OC3CCCC3)c3c(-c4ccc5nc(C)oc5c4)c[nH]c3n2)c(OC)c1
Second compound 0.0316 µM
  IC50: 6830 nM
Second compound 0.1 µM
  IC50: 6950 nM
Second compound 0.316 µM
  IC50: < 31.6 nM
Second compound 1 µM
  IC50: < 31.6 nM
Second compound 3.16 µM
  IC50: < 31.6 nM
Second compound 10 µM
  IC50: < 31.6 nM
Second compound 0.0316 µM, first compound 0.0316 µM
  viability, T/C: 95.9%
Second compound 0.0316 µM, first compound 0.1 µM
  viability, T/C: 94.7%
Second compound 0.0316 µM, first compound 0.316 µM
  viability, T/C: 103%
Second compound 0.0316 µM, first compound 1 µM
  viability, T/C: 102%
Second compound 0.0316 µM, first compound 3.16 µM
  viability, T/C: 112%
Second compound 0.0316 µM, first compound 10 µM
  viability, T/C: 24.5%
Second compound 0.1 µM, first compound 0.0316 µM
  viability, T/C: 96.3%
Second compound 0.1 µM, first compound 0.1 µM
  viability, T/C: 98.8%
Second compound 0.1 µM, first compound 0.316 µM
  viability, T/C: 93.9%
Second compound 0.1 µM, first compound 1 µM
  viability, T/C: 94%
Second compound 0.1 µM, first compound 3.16 µM
  viability, T/C: 102%
Second compound 0.1 µM, first compound 10 µM
  viability, T/C: 28.1%
Second compound 0.316 µM, first compound 0.0316 µM
  viability, T/C: 37.5%
Second compound 0.316 µM, first compound 0.1 µM
  viability, T/C: 38.5%
Second compound 0.316 µM, first compound 0.316 µM
  viability, T/C: 37.6%
Second compound 0.316 µM, first compound 1 µM
  viability, T/C: 40.3%
Second compound 0.316 µM, first compound 3.16 µM
  viability, T/C: 32.5%
Second compound 0.316 µM, first compound 10 µM
  viability, T/C: 21.1%
Second compound 1 µM, first compound 0.0316 µM
  viability, T/C: 27.2%
Second compound 1 µM, first compound 0.1 µM
  viability, T/C: 26.2%
Second compound 1 µM, first compound 0.316 µM
  viability, T/C: 28.3%
Second compound 1 µM, first compound 1 µM
  viability, T/C: 28.4%
Second compound 1 µM, first compound 3.16 µM
  viability, T/C: 28.3%
Second compound 1 µM, first compound 10 µM
  viability, T/C: 23.4%
Second compound 3.16 µM, first compound 0.0316 µM
  viability, T/C: 29.2%
Second compound 3.16 µM, first compound 0.1 µM
  viability, T/C: 25.2%
Second compound 3.16 µM, first compound 0.316 µM
  viability, T/C: 26.9%
Second compound 3.16 µM, first compound 1 µM
  viability, T/C: 23.9%
Second compound 3.16 µM, first compound 3.16 µM
  viability, T/C: 27.6%
Second compound 3.16 µM, first compound 10 µM
  viability, T/C: 22.3%
Second compound 10 µM, first compound 0.0316 µM
  viability, T/C: 26.6%
Second compound 10 µM, first compound 0.1 µM
  viability, T/C: 26.6%
Second compound 10 µM, first compound 0.316 µM
  viability, T/C: 24.4%
Second compound 10 µM, first compound 1 µM
  viability, T/C: 21.8%
Second compound 10 µM, first compound 3.16 µM
  viability, T/C: 26.1%
Second compound 10 µM, first compound 10 µM
  viability, T/C: 21.6%

## NC(=O)C(=Cn1cnc(-c2cc(C(F)(F)F)cc(C(F)(F)F)c2)n1)c1cncnc1 + CNC(=O)c1ccc(Nc2nc(OC3CCCC3)c3c(-c4ccc5nc(C)oc5c4)c[nH]c3n2)c(OC)c1
Second compound 0.0316 µM
  IC50: 330 nM
Second compound 0.1 µM
  IC50: 411 nM
Second compound 0.316 µM
  IC50: 61.9 nM
Second compound 1 µM
  IC50: < 9.49 nM
Second compound 3.16 µM
  IC50: < 9.49 nM
Second compound 10 µM
  IC50: < 9.49 nM
Second compound 0.0316 µM, first compound 0.00949 µM
  viability, T/C: 115%
Second compound 0.0316 µM, first compound 0.03 µM
  viability, T/C: 92.4%
Second compound 0.0316 µM, first compound 0.0949 µM
  viability, T/C: 66.3%
Second compound 0.0316 µM, first compound 0.3 µM
  viability, T/C: 55%
Second compound 0.0316 µM, first compound 0.949 µM
  viability, T/C: 35.7%
Second compound 0.0316 µM, first compound 3 µM
  viability, T/C: 8.15%
Second compound 0.1 µM, first compound 0.00949 µM
  viability, T/C: 105%
Second compound 0.1 µM, first compound 0.03 µM
  viability, T/C: 96.4%
Second compound 0.1 µM, first compound 0.0949 µM
  viability, T/C: 71%
Second compound 0.1 µM, first compound 0.3 µM
  viability, T/C: 55.3%
Second compound 0.1 µM, first compound 0.949 µM
  viability, T/C: 37.2%
Second compound 0.1 µM, first compound 3 µM
  viability, T/C: 11.1%
Second compound 0.316 µM, first compound 0.00949 µM
  viability, T/C: 54.1%
Second compound 0.316 µM, first compound 0.03 µM
  viability, T/C: 55.3%
Second compound 0.316 µM, first compound 0.0949 µM
  viability, T/C: 47.9%
Second compound 0.316 µM, first compound 0.3 µM
  viability, T/C: 38.1%
Second compound 0.316 µM, first compound 0.949 µM
  viability, T/C: 28.3%
Second compound 0.316 µM, first compound 3 µM
  viability, T/C: 4.69%
Second compound 1 µM, first compound 0.00949 µM
  viability, T/C: 35.7%
Second compound 1 µM, first compound 0.03 µM
  viability, T/C: 31.3%
Second compound 1 µM, first compound 0.0949 µM
  viability, T/C: 28.1%
Second compound 1 µM, first compound 0.3 µM
  viability, T/C: 18.8%
Second compound 1 µM, first compound 0.949 µM
  viability, T/C: 12.8%
Second compound 1 µM, first compound 3 µM
  viability, T/C: 1%
Second compound 3.16 µM, first compound 0.00949 µM
  viability, T/C: 31.4%
Second compound 3.16 µM, first compound 0.03 µM
  viability, T/C: 30.6%
Second compound 3.16 µM, first compound 0.0949 µM
  viability, T/C: 26.1%
Second compound 3.16 µM, first compound 0.3 µM
  viability, T/C: 19.3%
Second compound 3.16 µM, first compound 0.949 µM
  viability, T/C: 5.51%
Second compound 3.16 µM, first compound 3 µM
  viability, T/C: 0.93%
Second compound 10 µM, first compound 0.00949 µM
  viability, T/C: 32.6%
Second compound 10 µM, first compound 0.03 µM
  viability, T/C: 25.8%
Second compound 10 µM, first compound 0.0949 µM
  viability, T/C: 22.5%
Second compound 10 µM, first compound 0.3 µM
  viability, T/C: 19.9%
Second compound 10 µM, first compound 0.949 µM
  viability, T/C: 4.71%
Second compound 10 µM, first compound 3 µM
  viability, T/C: 0.78%
